In US10858388B2, “Selective progesterone receptor modulator (SPRM) regimen” (BAYER PHARMA AKTIENGESELLSCHAFT, priority 2015, dated 2020):
Entries after “also recorded” stand apart in the source; their conditions may differ.

Legend:
Assay type in all cases: in vivo, human
[1] = test system: subjects with uterine fibroids; experiment: Study 15788: endometrial biopsies, PAEC and histology (Example 3)
Experimental: (§1) A randomized, parallel-group, double-blind, placebo-controlled, multi-center study to assess efficacy of different doses of Compound 1 where primary efficacy variable is Endometrium thickness and secondary efficacy variable is PAEC in subjects with uterine fibroids over a 3-month treatment [1×12 weeks/84 days]
The first endometrial biopsy was performed on Day 9+/−2 of the first or second menstrual cycle after screening visit 1, i.e. at screening visit 2.
Biopsy was determined by randomization. This means that subjects were randomized to the time point of the second biopsy and were informed about the group they are in, directly after randomization followed by stratification by dose group.
If a subject was randomized to this time point, the biopsy was scheduled on Day 9+/−2 of the first menstrual cycle after the treatment visit 2 (corresponding to Visit 5), i.e. during the last 4 weeks of study drug treatment. If no menstrual bleeding occurs between the treatment visit 2 (Visit 5) and the end of treatment (EoT) visit (Visit 6), the biopsy was performed at the end of treatment (EoT) visit (Visit 6).
If a subject was randomized to this time point, the biopsy was scheduled on Day 9+/−2 of the first menstrual cycle after the end of treatment. If no menstrual bleeding occurs until 12 weeks after end of treatment, i.e. until the follow-up visit 2 (Visit 8), a biopsy was performed at the follow-up visit 2 (Visit 8) and induction of bleeding was considered.
If a subject was randomized to this time point, the biopsy was scheduled on Day 9+/−2 of the second menstrual cycle after the end of treatment. If no menstrual bleeding occurs until 12 weeks after end of treatment, i.e. until the follow-up visit 2 (Visit 8), a biopsy was performed at the follow-up visit 2 (Visit 8) and induction of bleeding was considered.
If a subject is randomized to this time point, the biopsy was scheduled on Day 9+1-2 of the third menstrual cycle after end of treatment. If no menstrual bleeding occurred until 12 weeks after end of treatment, i.e. until the follow-up visit 2 (Visit 8), a biopsy was performed at the follow-up visit 2 (Visit 8) and induction of bleeding was considered.
The third endometrial biopsy was performed at the follow-up visit 3 (Visit 9), which was scheduled on Day 9+/−2 of the menstrual cycle which started following Week 20 after the end of treatment. If no bleeding episode occurred, Visit 9 was performed 24 weeks after end of treatment, i.e. Visit 9 took place 21 to 24 weeks after the end of treatment in all subjects. If the second endometrial biopsy was performed less than 6 weeks before the scheduled date of the third endometrial biopsy and pathological findings were absent, the third endometrial biopsy was not required.
After the end of treatment, subjects were followed up for 21 to 24 weeks (Follow-up period). […] In case of findings that require further follow-up, additional visits were scheduled according to normal standard practice.
(§2) Efficacy Measurement: • endometrial biopsies • cervical smear • transvaginal ultrasound TVU (endometrial thickness, ovaries)
FIG. 2: PAEC in biopsy after 1st/2nd/3rd bleeding episodes (menses). Pharmacodynamic effecs on the endometrium. Percentage of subjects with PAEC.

[2] = test system: subjects with uterine fibroids; experiment: Study 15788: endometrial thickness by transvaginal ultrasound, 3-month treatment (Example 3); conditions: 12 weeks
Experimental: as §1
(§3) Doses: 0.5 mg, 1 mg, 2 mg, or 4 mg once daily
(§4) Route of administration: Oral
(§5) Duration of treatment: 1×12 weeks (84 days)
Women, 18 to 50 years old, with uterine fibroids documented by transvaginal or abdominal ultrasound at screening with at least 1 uterine fibroid with largest diameter 3 cm and heavy menstrual bleeding (HMB) 80 ml were eligible for enrolment in the study.
Eligible subjects were equally randomized to one of the treatment groups (Placebo, 0.5 mg, 1 mg, 2 mg, or 4 mg Compound 1). Treatment started during the first week of the menstrual cycle following randomization. The treatment period consisted of 12 weeks (84 days) of daily tablet intake.
as §2
Subjects that were detected with endometrial thickness (double layer)>18 mm (or suspicious bleeding pattern, e.g. continuous spotting, unusually heavy bleeding), were immediately evaluated by an additional endometrial biopsy.

[3] = test system: patient diagnosed with Uterine Fibroids; experiment: Long term treatment of patients with Compound 1, summary findings
Description: Compound 1 is a potent Selective Progesterone Receptor Modulator (SPRM) and more particularly a competitive Progesterone Receptor (PR) antagonist creating alternatives for the treatment of Uterine Fibroids. […] Amenorrhea corresponds to the major objective of the treatment i.e. control of excessive uterine bleeding.

[4] = test system: subjects with uterine fibroids; experiment: Study 15788: amenorrhea, 3-month treatment (Example 4)
Experimental: A randomized, parallel-group, double-blind, placebo-controlled, multi-center study to assess efficacy of different doses of Compound 1 where primary efficacy variable is Amenorrhea, in subjects with uterine fibroids over a 3-month treatment [1×12 weeks/84 days]
as §3, §4, §5
Women, 18 to 50 years old, with uterine fibroids documented by transvaginal or abdominal ultrasound at screening with at least 1 uterine fibroid with largest diameter 3 cm and Heavy Menstrual Bleeding (HMB) 80 ml were eligible for enrolment in the study.
Eligible subjects were equally randomized to one of the treatment groups (Placebo, 0.5 mg, 1 mg, 2 mg, or 4 mg Compound 1). Treatment was started during the first week of the menstrual cycle following randomization. The treatment period consisted of 12 weeks (84 days) of daily tablet intake.
Efficacy Measurement: • daily documentation of bleeding intensity (electronic diary or eDiary) • Menstrual Pictogram MP (electronic diary or eDiary) • collection of sanitary products for analysis of menstrual blood loss with alkaline hematin (AH) method
Onset of amenorrhea is defined by the first day for which the menstrual blood loss (assessed by MP) for all subsequent 28-day periods up to the end of the treatment period is less than 2 ml.
The primary objective estimates the dose-response curve based on the primary endpoint women with amenorrhea by dose.

C[C@]12C[C@H](c3ccc(S(C)(=O)=O)cc3)C3=C4CCC(=O)C=C4CC[C@H]3[C@@H]1CC[C@@]2(O)C(F)(F)C(F)(F)F [Compound 1, (11β,17β)-17-Hydroxy-11-[4-(methylsulphonyl)phenyl]-17-(pentafluoroethyl)estra-4,9-dien-3-one]
Treatment-emergent critical endometrial findings ([1]; 0.5-4 mg once daily, 12 weeks): No treatment-emergent critical endometrial findings occurred
Resolution of PAECs after bleeding episodes ([1]; break / follow-up after end of treatment): already resolved after one bleeding; also recorded: resolve PAECs already after one bleeding
Endometrial histology in biopsies at the end of follow-up ([1]; end of follow-up, all available samples): benign endometrial histology changes (PAEC)
Cases of hyperplasia ([1]; endometrial biopsies): no cases of hyperplasia
PAECs during follow-up ([1]; follow-up after 12 weeks treatment, FIG. 2): returned to background level
Endometrial thickness at EoT, max ([2]; 0.5 mg once daily oral): (27.0, 5.2) mm
Subjects with maximum endometrium thickness >18 mm, (%) ([2]; 0.5 mg once daily oral): (3.4) %
Median endometrial thickness at EoT ([2]; 0.5 mg once daily oral, n = 57): 9.0 mm
Endometrial thickness at EoT, max ([2]; 1 mg once daily oral): (41.0, 7.0) mm
Subjects with maximum endometrium thickness >18 mm, (%) ([2]; 1 mg once daily oral): (12.5) %
Median endometrial thickness at EoT ([2]; 1 mg once daily oral, n = 56): 10.0 mm
Endometrial thickness at EoT, max ([2]; 2 mg once daily oral): (27.0, 4.7) mm
Subjects with maximum endometrium thickness >18 mm, (%) ([2]; 2 mg once daily oral): (3.5) %
Median endometrial thickness at EoT ([2]; 2 mg once daily oral, n = 58): 7.5 mm
Endometrial thickness at EoT, max ([2]; 4 mg once daily oral): (20.0, 4.9) mm
Median endometrial thickness at EoT ([2]; 4 mg once daily oral, n = 56): 8.5 mm
Trend in endometrial thickness under treatment ([2]; 0.5-4 mg once daily): no clear trend for an increase
Amenorrhea [3]: observed at early stage and with high intensity
Endometrial hypertrophy (TEAE) [3]: no endometrial hypertrophy was reported
Major safety findings [3]: no major safety findings were reported
Ovulation inhibition [3]: ovulation inhibition was observed
Pelvic pain [3]: found to be reduced
Uterine fibroids size [3]: clearly reduced
Amenorrhea (<2 ml) at EoT (%) 12 Weeks ([4]; 0.5 mg once daily oral): 66.63%
Amenorrhea (<2 ml) at EoT (%) 12 Weeks ([4]; 1 mg once daily oral): 87.09%
Amenorrhea (<2 ml) at EoT (%) 12 Weeks ([4]; 2 mg once daily oral): 91.65%
Amenorrhea (<2 ml) at EoT (%) 12 Weeks ([4]; 4 mg once daily oral): 89.81%
Induction of amenorrhea ([4]; 0.5-4 mg once daily, 12 weeks): dose-dependent induction of amenorrhea
Heavy menstrual bleeding ([4]; 0.5-4 mg once daily, 12 weeks, FIG. 3): reduced quickly and sustainably
Subjects achieving amenorrhea during treatment ([4]; 12 weeks, FIG. 3): Most subjects even achieved amenorrhea already during treatment
